Assay results taken from patent US20190111059A1, “COMPOSITIONS AND METHODS FOR TREATING AUTISM SPECTRUM DISORDER” (Marinus Pharmaceuticals, Inc., priority 2017, published 2019).
Counter-ions that a name gives are not always drawn.

Tested on: children with non-syndromic autism spectrum disorder (ASD) and language impairment
Test: Randomized double-blind placebo-controlled trial: verbal communication (CELF-preschool-2, CELF-4, PLS-5), primary outcome
Assay type: in vivo, human
Conditions: for Verbal communication, effect size (Cohen's d) / Verbal communication, estimated effect vs placebo / Verbal communication, 12 weeks: 2 mg kg^−1 per day; for Verbal communication, effect size (Cohen's d) / Verbal communication, estimated effect vs placebo / % Difference responders (folinic acid vs placebo) / Adjusted odds ratio of response / Number needed to treat / Unadjusted odds ratio of response / % responders / Number of responders (increase in five standardized points, verbal communication): 12 weeks; for Verbal communication, estimated effect vs placebo: mixed-model regression
Protocol: We sought to determine whether high-dose folinic acid improves verbal communication in children with non-syndromic autism spectrum disorder (ASD) and language impairment in a double-blind placebo control setting. Forty-eight children (mean age 7 years 4 months; 82% male) with ASD and language impairment were randomized to receive 12 weeks of high-dose folinic acid (2 mg kg^-1 per day, maximum 50 mg per day; n=23) or placebo (n=25). Children were subtyped by glutathione and folate receptor-α autoantibody (FRAA) status. […] FRAA status was predictive of response to treatment. […] 2012 to 22 Nov. 2013. Participants who met inclusion and exclusion criteria were screened for language impairment. Preverbal (<25 functional words) children qualified as language impaired. Otherwise, the age-appropriate version of the Clinical Evaluation of Language Fundamentals (CELF) confirmed language impairment. Language impairment was defined as a core standardized score<85 if the preschool version was used or failure on the CELF screener if other versions were used. Those confirmed to have language impairment were randomized to the folinic acid or placebo group and a fasting blood sample was obtained. Randomization was performed using a random number generator with a block size of four. The research pharmacists had exclusive access to the randomization allocation. After breakfast, the participants returned for language, developmental and behavioral assessments. Following these assessments the family was given the 12 weeks of the intervention and was instructed on its administration. Language, developmental and behavioral assessments were repeated after 12 weeks of treatment. The target dose of the intervention (INN: DL folinic acid calcium salt; USAN: leucovorin calcium) was 2 mg kg^-1 per day (maximum 50 mg per day) in two equally divided doses with half of the target dose given during the first 2 weeks. Dye-free, milk-product-free, vegetarian capsules were provided in three strengths (5, 10 and 25 mg) by Lee Silsby Compounding Pharmacy (Cleveland Heights, Ohio, USA). Certificate of analysis was provided for each capsule strength by an independent analytical service (Eagle Analytical Services, Houston, Tex., USA) for each batch of capsules produced. In all cases, potency was at least 99%. Primary outcome. Verbal communication was the primary outcome for several reasons. First, verbal communication improved in preliminary folinic acid treatment studies. Second, verbal communication in children with ASD is closely linked to parental quality of life. Third, the development of language and communication skills is associated with favorable outcomes. Instruments used were the CELF-preschool-2, CELF-4 and the Preschool Language Scale-5 (PLS-5). The standardized summary score of each instrument (mean 100, standard deviation 15) was the primary outcome measure and ranges from 50 to 150 for the PLS-5 and 45 to 155 for the CELF. The ability-appropriate instrument was selected using a structured algorithm. The goal was to select an instrument with an adequate dynamic range for assessing improvement in verbal communication. The assessment started with the most age-appropriate instrument. If the child obtained a score at the floor, the next lower ability instrument was then used. This process was repeated until a score above the floor could be obtained. The score from the final instrument was the primary outcome measure at baseline and at trial end. If the child's age exceeded the maximum age of the instrument's standardization, the maximum standardized age was used. At trial end, all instruments used during the baseline assessment were repeated in the same order to simulate the same baseline assessment experience and to minimize a potential confounder of cognitive fatigue. Studies have shown that early behavioral therapy improves verbal communication by one-standard deviation over 36 weeks. […]

[1] = antibody negative, folinic acid N = 10
[2] = antibody positive, folinic acid N = 13
[3] = glutathione high, folinic acid N = 14
[4] = glutathione low, folinic acid N = 9

Nc1nc2c(c(=O)[nH]1)N(C=O)C(CNc1ccc(C(=O)N[C@@H](CCC(=O)O)C(=O)O)cc1)CN2 (mixture of isomers) [Folinic acid, DL folinic acid calcium salt]
Verbal communication, effect size (Cohen's d) (FRAA antibody negative N=17): 0.30
Verbal communication, estimated effect vs placebo (FRAA antibody negative N=17, calcium salt): 2.5 standardized score
Verbal communication, estimated effect vs placebo (FRAA antibody negative N=17, listed as folinic acid, calcium salt): not significantly different
Verbal communication, effect size (Cohen's d) (FRAA antibody positive N=31): 0.91
Verbal communication, estimated effect vs placebo (FRAA antibody positive N=31, calcium salt): 7.3 standardized score
Verbal communication, effect size (Cohen's d) (glutathione redox ratio high N=24): 0.46
Verbal communication, estimated effect vs placebo (glutathione redox ratio high N=24, calcium salt): 3.0 standardized score
Verbal communication, estimated effect vs placebo (glutathione redox ratio high N=24, listed as folinic acid, calcium salt): not significantly different
Verbal communication, effect size (Cohen's d) (glutathione redox ratio low N=24): 0.95
Verbal communication, estimated effect vs placebo (glutathione redox ratio low N=24, calcium salt): 9.1 standardized score
Verbal communication, estimated effect vs placebo (glutathione redox ratio low N=24, listed as folinic acid, calcium salt): significantly greater
Verbal communication, effect size (Cohen's d) (overall N=48): 0.70
Verbal communication, estimated effect vs placebo (overall N=48, calcium salt): 5.7 standardized score
Verbal communication, 12 weeks (FRAA antibody negative, baseline 57.9): 64.5 standardized score
Verbal communication, 12 weeks (FRAA antibody positive, baseline 58.1): 66.1 standardized score
Verbal communication, 12 weeks (glutathione redox ratio high, baseline 59.2): 65.0 standardized score
Verbal communication, 12 weeks (glutathione redox ratio low, baseline 56.1): 66.0 standardized score
Verbal communication, 12 weeks (overall, baseline 58.1): 65.4 standardized score
% Difference responders (folinic acid vs placebo) (antibody negative): 21%
Adjusted odds ratio of response (antibody negative): 3.6
Number needed to treat (antibody negative): 4.7
Unadjusted odds ratio of response (antibody negative): 2.5
% responders [1]: 50%
Number of responders (increase in five standardized points, verbal communication) [1]: 5
% Difference responders (folinic acid vs placebo) (antibody positive): 55% (19%,
Adjusted odds ratio of response (antibody positive): 67.4
Number needed to treat (antibody positive): 1.8
Unadjusted odds ratio of response (antibody positive): 11.7
% responders [2]: 77%
Number of responders (increase in five standardized points, verbal communication) [2]: 10
% Difference responders (folinic acid vs placebo) (glutathione high): 34% (−4%,
Adjusted odds ratio of response (glutathione high): 21.9
Number needed to treat (glutathione high): 2.9
Unadjusted odds ratio of response (glutathione high): 4.2
% responders [3]: 64%
Number of responders (increase in five standardized points, verbal communication) [3]: 9
% Difference responders (folinic acid vs placebo) (glutathione low): 47% (10%,
Adjusted odds ratio of response (glutathione low): 10.2
Number needed to treat (glutathione low): 2.1
Unadjusted odds ratio of response (glutathione low): 8.0
% responders [4]: 67%
Number of responders (increase in five standardized points, verbal communication) [4]: 6
Adjusted odds ratio of response (overall): 14.9
Number needed to treat (overall): 2.4
Unadjusted odds ratio of response (overall): 5.9
% responders (overall, folinic acid N = 23): 65%
Number of responders (increase in five standardized points, verbal communication) (overall, folinic acid N = 23): 15
% Difference responders (folinic acid vs placebo) (overall, calcium salt): 41% (13%,
% Difference responders (folinic acid vs placebo) (overall, listed as folinic acid, calcium salt): significantly more responders
